According to ChEMBL document CHEMBL4052767, “Discovery of a potent angiotensin converting enzyme inhibitor via virtual screening” (Bioorg Med Chem Lett, 2017):

Target: Angiotensin-converting enzyme (Homo sapiens) (UniProt P12821)
Test: Inhibition of recombinant human ACE at 100 uM using Mca-R-P-PG-F-S-A-F-K(Dnp)-OH as substrate measured every 2 mins for 8 mins by fluorescence assay

Sequence of Angiotensin-converting enzyme (Homo sapiens) (P12821 whole entry): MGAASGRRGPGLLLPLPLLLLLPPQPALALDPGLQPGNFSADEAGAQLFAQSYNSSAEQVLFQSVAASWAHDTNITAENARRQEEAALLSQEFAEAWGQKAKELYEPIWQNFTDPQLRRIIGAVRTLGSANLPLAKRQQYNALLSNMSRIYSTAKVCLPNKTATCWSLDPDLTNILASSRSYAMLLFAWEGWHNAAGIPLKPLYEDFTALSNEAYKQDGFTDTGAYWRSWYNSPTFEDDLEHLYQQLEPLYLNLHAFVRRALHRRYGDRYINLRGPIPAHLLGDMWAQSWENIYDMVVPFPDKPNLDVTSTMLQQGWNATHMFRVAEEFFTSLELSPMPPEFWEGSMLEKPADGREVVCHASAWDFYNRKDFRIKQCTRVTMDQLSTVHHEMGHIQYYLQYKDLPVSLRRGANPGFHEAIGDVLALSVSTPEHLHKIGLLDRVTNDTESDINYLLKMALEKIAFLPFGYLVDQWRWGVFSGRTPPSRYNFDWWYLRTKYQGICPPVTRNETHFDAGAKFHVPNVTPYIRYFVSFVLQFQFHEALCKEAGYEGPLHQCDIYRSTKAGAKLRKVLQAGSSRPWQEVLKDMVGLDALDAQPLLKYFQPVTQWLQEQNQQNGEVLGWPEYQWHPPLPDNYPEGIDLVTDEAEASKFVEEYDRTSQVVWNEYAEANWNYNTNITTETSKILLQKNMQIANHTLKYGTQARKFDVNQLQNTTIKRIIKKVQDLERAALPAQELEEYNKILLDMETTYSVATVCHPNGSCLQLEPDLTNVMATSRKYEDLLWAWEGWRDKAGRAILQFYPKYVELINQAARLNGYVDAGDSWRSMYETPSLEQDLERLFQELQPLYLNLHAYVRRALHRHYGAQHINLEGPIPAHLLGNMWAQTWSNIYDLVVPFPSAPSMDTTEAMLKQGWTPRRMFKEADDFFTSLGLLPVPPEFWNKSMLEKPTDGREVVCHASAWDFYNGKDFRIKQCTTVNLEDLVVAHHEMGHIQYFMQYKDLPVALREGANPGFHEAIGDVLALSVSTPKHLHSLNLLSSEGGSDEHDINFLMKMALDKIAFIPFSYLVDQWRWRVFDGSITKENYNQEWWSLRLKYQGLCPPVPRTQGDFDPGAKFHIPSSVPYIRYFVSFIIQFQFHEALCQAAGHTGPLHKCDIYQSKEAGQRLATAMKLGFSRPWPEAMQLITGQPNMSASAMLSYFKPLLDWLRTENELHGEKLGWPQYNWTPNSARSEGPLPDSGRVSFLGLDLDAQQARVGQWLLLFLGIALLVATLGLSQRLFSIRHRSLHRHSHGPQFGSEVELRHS

With `C=CC(C)(C)c1cc(/C=C/C(=O)c2ccc(O)cc2)c(OC)cc1O` as the compound, how does the inhibition read?
The inhibition was 111%.

How did the inhibition turn out when `COc1cc(O)ccc1/C=C/C(=O)c1ccc(O)cc1` was run?
The inhibition was 72.5%.

With `C[C@@H]1O[C@@H](Oc2cc(O)c3c(=O)c(O)c(-c4ccc(O)cc4)oc3c2O)[C@H](O)[C@H](O)[C@H]1O` as the compound, how does the inhibition read?
The inhibition was 17.2%.

How did the inhibition turn out when `COc1cc(C=O)ccc1O` was run?
The inhibition was 41.5%.

For `C[C@@H]1CC[C@H]2[C@@H](C)C(=O)O[C@@H]3O[C@@]4(C)CC[C@@H]1[C@]32OO4`, which inhibition is on record?
Its inhibition is 17.1%.

How did the inhibition turn out when `O=C(O[C@@H]1Cc2c(O)cc(O)cc2O[C@@H]1c1cc(O)c(O)c(O)c1)c1cc(O)c(O)c(O)c1` was run?
Its inhibition is 82%.

`CC[C@H]1CN2CC[C@]3(C(=O)Nc4ccccc43)[C@@H]2C[C@@H]1/C(=C\OC)C(=O)OC` was tested. Which inhibition did it give?
The inhibition was 10%.

With `OC[C@H]1O[C@@H](Oc2cc(O)cc(/C=C/c3ccc(O)cc3)c2)[C@H](O)[C@@H](O)[C@@H]1O` as the compound, how does the inhibition read?
The inhibition was 8.9%.

With `COc1ccc(/C=C/c2cc(O)cc(O[C@@H]3O[C@H](CO)[C@@H](O)[C@H](O)[C@H]3O)c2)cc1O` as the compound, how does the inhibition read?
Its inhibition is 18.2%.

`C[C@]1(O)C[C@@H](O)[C@]2(O)C=CO[C@@H](O[C@@H]3O[C@H](CO)[C@@H](O)[C@H](O)[C@H]3O)[C@@H]21` was tested. Which inhibition did it give?
The inhibition was 14.8%.
